Laboratory results reported in US10364256B2 (GlaxoSmithKline Intellectual Property Development Limited, priority 2015, dated 2019).
Read-outs that look alike come from different tables or passages of the source.

Tests used:
[1] = tested on: NQO1 specific enzyme activity in BEAS-2B cells (marker for NRF2 activation); assay: BEAS-2B NQO1 MTT Assay; type: cell-based; settings: Homo sapiens, compound incubated 48 hours, read-out: EC50 (NQO1 specific enzyme activity induction)
Summary of the method: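 NQO1 specific activity induction is derived from the rate of MTT reduction (ΔOD/min, 570 nm, 30 min kinetic read) in crude lysates of BEAS-2B cells exposed to compound for 48 h. A 3-parameter fit gives EC50, reported as pEC50; part of each lysate goes to Cell Titer Glo.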

[2] = target: T1, Keap1 Kelch domain (321-609) / TAMRA-labeled 16mer NRF2 peptide (ETGE motif) (Homo sapiens, UniProt Q14145); assay: NRF2-Keap1 FP Assay (Keap1 Kelch fluorescence polarization); type: binding; settings: 20 nM Keap1 (321-609), 8 nM Tamra labeled peptide
T1 construct: the Kelch domain (321-609) of Keap1 is used
Summary of the method: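 Compound dilutions (3-fold) were incubated 1 hr at room temperature with 20 nM Keap1 Kelch (321-609) and 8 nM TAMRA-labeled ETGE 16mer peptide. Buffer was 50 mM Tris pH 8.0, 100 mM NaCl, 5 mM MgCl2, 1 mM DTT, 2 mM CHAPS, 0.005% BSA. Fluorescence polarization (mP) was normalized to controls and fitted with a four-parameter equation to give pIC50.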

[3] = target: T2, full length Keap1 protein / full length NRF2 protein (Homo sapiens, UniProt Q14145); assay: NRF2-Keap1 TR-FRET Assay; type: binding; settings: 25 nM Keap1-FlagHis and 50 nM biotin-NRF2 added
T2 construct: full length NRF2 protein and full length Keap1 protein (Keap1 exists a dimer) are used; His
Source text: In the NRF2-Keap1 TR-FRET (time-resolved fluorescence resonance energy transfer) assay, full length NRF2 protein and full length Keap1 protein (Keap1 exists a dimer) are used. The assay detects the ability of compound to displace the binding of FlagHis-tagged Keap1 with biotinylated, Avi-tagged NRF2 protein. Biotin-NRF2 binds to streptavidin-europium (a component of the detection mix) and Keap1-FlagHis is recognized by anti-Flag APC (allophycocyanin) antibody (also a component of the detection mix). If binding occurs between the two proteins, there will be an energy transfer from the Eu+3 (donor) at 615 nm to the APC (acceptor) at 665 nm. A potential Keap1 inhibitor will cause a reduction in the TR-FRET signal by interfering with the binding of Keap1 to NRF2.
One hundred nanoliters of 100× compound dose response curves (serial 3-fold dilutions) in DMSO are stamped using an Echo liquid handling system (Labcyte) into 384-well, low volume, black assay plates (Greiner, #784076), with DMSO in columns 6 and 18. The top concentration of compound is located in columns 1 and 13. All reagents are diluted in assay buffer (50 mM Tris, pH 8.0, 5 mM MgCl2, 100 mM NaCl, 0.005% BSA, 1 mM DTT, and 2 mM CHAPS). The BSA, DTT, and CHAPS are added to the assay buffer on the day of assay. Using a Multidrop Combi (Thermo Electron Corporation) equipped with a metal tip dispenser, 5 ul of 25 nM Keap1-FlagHis protein is added to all wells of the compound plate, with the exception of the wells in column 18. Wells in column 18 receive 5 ul of assay buffer instead. Plates are centrifuged at 500 rpm for 1 minute, covered with a plate lid, and incubated at 37° C. for 2.25 hours. Plates are then removed from the incubator and allowed to cool to RT for 15 minutes. Five microliters of 50 nM biotin-NRF2 protein is then added to all wells of the plates and the plates are spun at 500 rpm for 1 minute, followed by incubating at 4° C. for 1.25 hours. The plates are then allowed to warm to RT for 15 minutes, followed by the addition of 10 ul of detection mix (1 nM Streptavidin Eu+ W1024 and 5 ug/ml mouse anti-DYKDDDDK IgG conjugated to SureLight APC antibody; both from Columbia Biosciences) to all wells. Plates are spun at 500 rpm for 1 minute, incubated for 1 hour at RT, and read on an Envision plate reader using a 320 nm excitation filter and 615 nm and 665 nm emission filters. Compound response (% inhibition) and potency (pIC50) are calculated based on the ratio of the two emissions (665 nm/615 nm) and then the transformed data is normalized against controls in the assay (control 1=1% DMSO in the presence of NRF2 and Keap1 protein and control 2=1% DMSO in the absence of protein). Data analysis is handled using the software package Abase XE (Surrey, United Kingdom). The % inhibition values are calculated from the ratio (transformed) data by the equation: 100−(100*(compound response−average control 2)/(average control 1−average control2)). For calculation of pIC50s, Abase XE uses a four parameter equation. pIC50 is the negative log of the IC50.

T1 sequence (Q14145 321-609): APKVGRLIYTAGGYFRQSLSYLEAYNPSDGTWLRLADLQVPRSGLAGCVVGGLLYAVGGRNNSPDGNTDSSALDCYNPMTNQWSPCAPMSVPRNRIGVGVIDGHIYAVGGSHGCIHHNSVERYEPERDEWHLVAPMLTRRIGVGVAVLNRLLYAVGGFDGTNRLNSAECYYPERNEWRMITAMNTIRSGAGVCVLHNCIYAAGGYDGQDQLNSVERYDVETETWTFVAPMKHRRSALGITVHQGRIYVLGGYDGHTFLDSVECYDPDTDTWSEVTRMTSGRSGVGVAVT
T2 sequence (Q14145 whole entry): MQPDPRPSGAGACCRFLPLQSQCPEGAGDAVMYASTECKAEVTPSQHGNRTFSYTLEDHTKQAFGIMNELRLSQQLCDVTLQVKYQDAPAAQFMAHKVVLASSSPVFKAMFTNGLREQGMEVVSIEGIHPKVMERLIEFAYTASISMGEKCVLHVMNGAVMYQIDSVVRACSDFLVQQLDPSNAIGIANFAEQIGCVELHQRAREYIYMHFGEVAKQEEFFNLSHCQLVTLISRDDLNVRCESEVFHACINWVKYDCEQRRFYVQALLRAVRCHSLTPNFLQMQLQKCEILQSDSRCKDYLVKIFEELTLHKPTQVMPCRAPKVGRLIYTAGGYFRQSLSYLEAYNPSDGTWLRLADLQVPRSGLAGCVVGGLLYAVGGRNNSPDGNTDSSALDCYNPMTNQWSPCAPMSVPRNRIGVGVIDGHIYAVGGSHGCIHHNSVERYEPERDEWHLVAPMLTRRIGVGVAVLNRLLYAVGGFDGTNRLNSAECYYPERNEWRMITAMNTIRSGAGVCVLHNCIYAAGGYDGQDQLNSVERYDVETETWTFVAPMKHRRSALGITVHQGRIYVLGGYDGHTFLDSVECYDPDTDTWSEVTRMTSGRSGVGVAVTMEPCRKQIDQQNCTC

| IC50 [2] | IC50 [3] | SMILES | EC50 ([1]; BEAS-2B, 48 h) | EC50 [1] |
| --- | --- | --- | --- | --- |
| 0.01 to 0.1 µM | 0.1 to 1 µM | CCC[C@@H]1CCCCN1C(=O)c1cccc(-c2cccc(-n3ncc(C(=O)O)c3CCc3cn(C)nn3)c2)c1 [Example 58, (R)-5-(2-(1-Methyl-1H-1,2,3-triazol-4-yl)ethyl)-1-(3′-(2-propylpiperidine-1-carbonyl)-[1,1′-biphenyl]-3-yl)-1H-pyrazole-4-carboxylic Acid] | 1 to 10 µM |  |
| 0.01 to 0.1 µM | 0.01 to 0.1 µM | CCC[C@@H]1CCCCN1C(=O)c1cc(F)cc(-c2cccc(-n3ncc(C(=O)O)c3C3CC3c3cn(C)nn3)c2)c1 (stereo partly drawn) [Example 198, 1-(3′-Fluoro-5′-((R)-2-propylpiperidine-1-carbonyl)-[1,1′-biphenyl]-3-yl)-5-(2-(1-methyl-1H-1,2,3-triazol-4-yl)cyclopropyl)-1H-pyrazole-4-carboxylic acid] | 0.1 to 1 µM |  |
| 0.1 to 1 µM | 1 to 10 µM | Cc1ccnn1-c1cccc(-c2cccc(-n3ncc(C(=O)O)c3C3CC3)c2)c1 [Example 36, 5-Cyclopropyl-1-{3-[3-(5-methyl-1H-pyrazol-1-yl)phenyl]phenyl}-1H-pyrazole-4-carboxylic Acid] | 1 to 10 µM |  |
| 0.1 to 1 µM | 0.1 to 1 µM | Cn1cc([C@H]2C[C@@H]2c2c(C(=O)O)cnn2-c2cccc(-c3cccc(OCC(C)(C)C)c3)c2)nn1 (racemic) [Example 226, 5-((1,2-trans)-2-(1-Methyl-1H-1,2,3-triazol-4-yl)cyclopropyl)-1-(3′-(neopentyloxy)-[1,1′-biphenyl]-3-yl)-1H-pyrazole-4-carboxylic acid] |  | 0.01 to 0.1 µM |
| 0.01 to 0.1 µM | 0.1 to 1 µM | CCCC1COCCN1C(=O)c1cccc(-c2cccc(-n3ncc(C(=O)O)c3C3CC3)c2)c1F (stereo not drawn) [Example 27, 5-Cyclopropyl-1-{3-[2-fluoro-3-(3-propylmorpholine-4-carbonyl)phenyl]phenyl}-1H-pyrazole-4-carboxylic Acid] |  | 1 to 10 µM |
| 0.1 to 1 µM | 1 to 10 µM | CC(C)CN(C)C(=O)c1cccc(-c2cccc(-n3ncc(C(=O)O)c3C3CC3)c2)c1F [Example 4, 5-Cyclopropyl-1-(3-{2-fluoro-3-[methyl(2-methylpropyl)carbamoyl]phenyl}phenyl)-1H-pyrazole-4-carboxylic Acid] |  | 1 to 10 µM |
| 1 to 10 µM | > 100 µM | CC(C)Oc1cccc(-c2cccc(-n3ncc(C(=O)O)c3C(F)(F)F)n2)c1 [Example 66, 1-(6-(3-Isopropoxyphenyl)pyridin-2-yl)-5-(trifluoromethyl)-1H-pyrazole-4-carboxylic Acid] |  | 1 to 10 µM |
| 0.1 to 1 µM | 1 to 10 µM | O=C(O)c1cnn(-c2cccc(-c3cccc(C(=O)N4CCCCC4)c3F)c2)c1C1CC1 [Example 20, 5-Cyclopropyl-1-{3-[2-fluoro-3-(piperidine-1-carbonyl)phenyl]phenyl}-1H-pyrazole-4-carboxylic Acid] |  | 1 to 10 µM |
| 0.01 to 0.1 µM | 0.1 to 1 µM | CCCC1CCCN1C(=O)c1cccc(-c2cccc(-n3ncc(C(=O)O)c3C3CC3)c2)c1F (stereo not drawn) [Example 26, 5-Cyclopropyl-1-{3-[2-fluoro-3-(2-propylpyrrolidine-1-carbonyl)phenyl]phenyl}-1H-pyrazole-4-carboxylic Acid] |  | 1 to 10 µM |
| 0.1 to 1 µM | 1 to 10 µM | CN(C(=O)c1cccc(-c2cccc(-n3ncc(C(=O)O)c3C3CC3)c2)c1F)C1CCCC1 [Example 3, 1-(3-{3-[Cyclopentyl(methyl)carbamoyl]-2-fluorophenyl}phenyl)-5-cyclopropyl-1H-pyrazole-4-carboxylic Acid] |  | 1 to 10 µM |
| 0.01 to 0.1 µM | 0.01 to 0.1 µM | CCC[C@@H]1CCCCN1C(=O)c1cccc(-c2cccc(-n3ncc(C(=O)O)c3C3CC3c3cnoc3C)c2)c1 (stereo partly drawn) [Example 159, 5-(2-(5-Methylisoxazol-4-yl)cyclopropyl)-1-(3′-((R)-2-propylpiperidine-1-carbonyl)-[1,1′-biphenyl]-3-yl)-1H-pyrazole-4-carboxylic Acid] | 0.1 to 1 µM |  |
| 0.01 to 0.1 µM | 1 to 10 µM | O=C(O)c1cnn(-c2cccc(-c3cccc(C(=O)N4CCCCCC4)c3F)c2)c1C1CC1 [Example 7, 1-{3-[3-(azepane-1-carbonyl)-2-fluorophenyl]phenyl}-5-cyclopropyl-1H-pyrazole-4-carboxylic Acid] |  | 1 to 10 µM |
| 0.1 to 1 µM | 1 to 10 µM | O=C(O)c1cnn(-c2cccc(-c3cccc(C(=O)N4CCCCCC4)c3)c2)c1C1CC1 [Example 10, 1-{3-[3-(Azepane-1-carbonyl)phenyl]phenyl}-5-cyclopropyl-1H-pyrazole-4-carboxylic Acid] |  | 1 to 10 µM |
| 0.01 to 0.1 µM | 0.1 to 1 µM | COC(c1cccc(-c2cccc(-n3ncc(C(=O)O)c3C3CC3c3cn(C)nn3)c2)c1)C(C)C (stereo not drawn) [Example 184, 1-(3′-(1-Methoxy-2-methylpropyl)-[1,1′-biphenyl]-3-yl)-5-(2-(1-methyl-1H-1,2,3-triazol-4-yl)cyclopropyl)-1H-pyrazole-4-carboxylic acid] |  | 0.1 to 1 µM |
| 0.01 to 0.1 µM | 0.1 to 1 µM | Cn1cc(C2CC2c2c(C(=O)O)cnn2-c2cccc(-c3cccc(OCC4CCCCO4)c3)c2)nn1 (stereo not drawn) [Example 175, 5-(2-(1-Methyl-1H-1,2,3-triazol-4-yl)cyclopropyl)-1-(3′-((tetrahydro-2H-pyran-2-yl)methoxy)-[1,1′-biphenyl]-3-yl)-1H-pyrazole-4-carboxylic acid] |  | 1 to 10 µM |
| 0.01 to 0.1 µM | 0.1 to 1 µM | CC1(C)CCCN(C(=O)c2cccc(-c3cccc(-n4ncc(C(=O)O)c4C4CC4)c3)c2F)C1 [Example 6, 5-Cyclopropyl-1-{3-[3-(3,3-dimethylpiperidine-1-carbonyl)-2-fluorophenyl]phenyl}-1H-pyrazole-4-carboxylic Acid] |  | 1 to 10 µM |
| 0.1 to 1 µM | 0.1 to 1 µM | CCC[C@@H]1CCCCN1C(=O)c1cccc(-c2cc(C)cc(-n3ncc(C(=O)O)c3[C@H]3C[C@@H]3c3cn(C)nn3)c2)c1 (single isomer, unassigned) [Example 156] | 0.1 to 1 µM |  |
| 1 to 10 µM | > 100 µM | O=C(O)c1cnn(-c2cccc(-c3cccc(C4CCCO4)c3)c2)c1C1CC1 (stereo not drawn) [Example 50, 5-Cyclopropyl-1-[3′-(tetrahydro-furan-2-yl)-biphenyl-3-yl]-1H-pyrazole-4-carboxylic Acid] |  | 1 to 10 µM |

| SMILES | IC50 [2] | IC50 [3] | EC50 ([1]; BEAS-2B, 48 h) | EC50 [1] |
| --- | --- | --- | --- | --- |
| O=C(O)c1cnn(-c2cccc(-c3cccc(C(=O)N4C5CCC4COC5)c3F)c2)c1C1CC1 [Example 32, 5-cyclopropyl-1-[3-(2-fluoro-3-{3-oxa-8-azabicyclo[3.2.1]octane-8-carbonyl}phenyl)phenyl]-1H-pyrazole-4-carboxylic Acid] | 0.1 to 1 µM | 1 to 10 µM |  | 1 to 10 µM |
| Cn1cc(CCCCOc2cccc(-c3cccc(-n4ncc(C(=O)O)c4C4CC4)c3)c2)nn1 [Example 153, 5-Cyclopropyl-1-(3′-(4-(1-methyl-1H-1,2,3-triazol-4-yl)butoxy)-[1,1′-biphenyl]-3-yl)-1H-pyrazole-4-carboxylic Acid] | 1 to 10 µM | 10 to 100 µM |  | 1 to 10 µM |
